Non-standard residues stand in square brackets, D forms with d. Residues, ends and D or L forms follow the SMILES beside them. No end group written: not given here. ξ: configuration not given here. ξGly(decyl) = CCCCCCCCCCC(N)C(=O)O; 2Adod = 2-aminododecanoic acid
Tests used:
[1] = system: IL-2; experiment: IL-2 ELISA, anti-CD3/anti-CD28 stimulated isolated CD3+ T cells; format: cell-based, human; conditions: 72 hrs
[2] = PET-CT uptake of Cu64-labelled NOTA-peptide in lung and blood after SC, IP, oral gavage; format: in vivo; conditions: 200 ug SC/IP and 1 mg OG, mice
Procedure: For FIG. 1d, 1,4,7-Triazacyclononane-1,4,7-triacetic acid (NOTA) conjugated peptides were acquired from Auspep, reconstituted in deionised water at 10 mg/mL and used without further purification. Peptides were incubated with ^64Cu at 1000-fold excess of peptide in 0.1 M pH 5.5 ammonium acetate buffer for 45 minutes at 37° C. 1 μL Samples of each solution were taken and mixed 1:1 with 50 mM EDTA. EDTA incubated sample or neat solution was spotted on TLC paper (Agilent iTLC-SG Glass microfiber chromatography paper impregnated with silica gel) and run with 50:50 H2O:ethanol. Detection of radiolabelled species migration was then achieved by imaging on a Bruker In Vivo MS FX Pro imaging system using a radioisotopic phosphor screen. Control experiments were conducted to monitor the elution profile of free ^64Cu and ^64Cu bound to EDTA for quality control. […]
The PET Images were reconstructed using an ordered-subset expectation maximization (OSEM2D) algorithm and analysed using the Inveon Research Workplace software (IRW 4.1) (Siemens) which allows fusion of CT and PET images and definition of regions of interest (ROIs). […] Activity concentrations were then expressed as percent of the decay-corrected injected activity per cm^3 of tissue that can be approximate as percentage injected dose/g (% ID/g). […]

[3] = system: Lewis Lung Cancer cells; experiment: SRB proliferation assay, Lewis Lung Cancer cells; format: cell-based; conditions: 2.5 μM, 72 h
Procedure: (§1) In addition, doxorubicin at 2.5 μM was tested in 5 replicate wells as a positive control. Cells were cultured for a further 72 h in the presence of drug or control before the cell culture medium was removed and the attached cells fixed in ice-cold trichloroacetic acid. […] Each experiment was performed on two independent occasions (biological replicates) and data were analysed in GraphPad Prism 9 using non-linear fit of log (inhibitor) versus response.

[4] = system: B16-F10 melanoma cells; experiment: SRB proliferation assay, B16-F10 melanoma cells; format: cell-based; conditions: 2.5 μM, 72 h
Procedure: as §1

[5] = target: c-Src (Homo sapiens, UniProt P12931); experiment: c-Src kinase activity assay ([γ33P-ATP], filtermat); format: biochemical
Procedure: c-Src, Fyn, Hck is incubated with 8 mM MOPS pH 7.0, 0.2 mM EDTA, 250 μM KVEKIGEGTYGVVYK (Cdc2 peptide), 10 mM MgAcetate and [γ33P-ATP] (specific activity approx. 500 cpm/pmol, concentration as required). The reaction is initiated by the addition of the MgATP mix. After incubation for 40 minutes at room temperature, the reaction is stopped by the addition of 3% phosphoric acid solution. 10 μL of the reaction is then spotted onto a P30 filtermat and washed three times for 5 minutes in 75 mM phosphoric acid and once in methanol prior to drying and scintillation counting.

[6] = target: Lck (Homo sapiens, UniProt P06239); experiment: Lck kinase activity assay ([γ33P-ATP], filtermat); format: biochemical
Sequence of Lck (P06239 whole entry): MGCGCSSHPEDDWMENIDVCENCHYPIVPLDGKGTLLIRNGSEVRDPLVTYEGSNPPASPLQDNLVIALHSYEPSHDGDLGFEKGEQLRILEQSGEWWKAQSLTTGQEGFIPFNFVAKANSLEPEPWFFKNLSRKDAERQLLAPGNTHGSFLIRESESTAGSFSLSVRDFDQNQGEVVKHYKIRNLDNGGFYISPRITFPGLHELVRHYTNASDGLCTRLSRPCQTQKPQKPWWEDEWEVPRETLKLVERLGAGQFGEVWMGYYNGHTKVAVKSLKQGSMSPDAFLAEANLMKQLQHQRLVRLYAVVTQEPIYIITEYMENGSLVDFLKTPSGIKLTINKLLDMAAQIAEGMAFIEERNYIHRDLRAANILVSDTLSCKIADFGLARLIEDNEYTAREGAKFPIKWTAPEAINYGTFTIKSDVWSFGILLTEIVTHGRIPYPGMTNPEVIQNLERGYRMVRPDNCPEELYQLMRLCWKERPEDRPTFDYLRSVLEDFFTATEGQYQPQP
Procedure: Lck is incubated with 50 mM Tris pH 7.5, 0.1 mM EGTA, 0.1 mM Na3VO4, 250 μM KVEKIGEGTYGWYK (Cdc2 peptide), 10 mM Magnesium acetate and [γ33P-ATP] (specific activity approx. 500 cpm/pmol, concentration as required). The reaction is initiated by the addition of the Mg/ATP mix. After incubation for 40 minutes at room temperature, the reaction is stopped by the addition of phosphoric acid to a concentration of 0.5%. 10 μL of the reaction is then spotted onto a P30 filtermat and washed four times for 4 minutes in 0.425% phosphoric acid and once in methanol prior to drying and scintillation counting.”

[7] = target: MAP4K1 (HPK1) (Homo sapiens, UniProt Q92918); experiment: MAP4K1 (HPK1) kinase activity; format: biochemical
Sequence of MAP4K1 (HPK1) (Q92918 whole entry): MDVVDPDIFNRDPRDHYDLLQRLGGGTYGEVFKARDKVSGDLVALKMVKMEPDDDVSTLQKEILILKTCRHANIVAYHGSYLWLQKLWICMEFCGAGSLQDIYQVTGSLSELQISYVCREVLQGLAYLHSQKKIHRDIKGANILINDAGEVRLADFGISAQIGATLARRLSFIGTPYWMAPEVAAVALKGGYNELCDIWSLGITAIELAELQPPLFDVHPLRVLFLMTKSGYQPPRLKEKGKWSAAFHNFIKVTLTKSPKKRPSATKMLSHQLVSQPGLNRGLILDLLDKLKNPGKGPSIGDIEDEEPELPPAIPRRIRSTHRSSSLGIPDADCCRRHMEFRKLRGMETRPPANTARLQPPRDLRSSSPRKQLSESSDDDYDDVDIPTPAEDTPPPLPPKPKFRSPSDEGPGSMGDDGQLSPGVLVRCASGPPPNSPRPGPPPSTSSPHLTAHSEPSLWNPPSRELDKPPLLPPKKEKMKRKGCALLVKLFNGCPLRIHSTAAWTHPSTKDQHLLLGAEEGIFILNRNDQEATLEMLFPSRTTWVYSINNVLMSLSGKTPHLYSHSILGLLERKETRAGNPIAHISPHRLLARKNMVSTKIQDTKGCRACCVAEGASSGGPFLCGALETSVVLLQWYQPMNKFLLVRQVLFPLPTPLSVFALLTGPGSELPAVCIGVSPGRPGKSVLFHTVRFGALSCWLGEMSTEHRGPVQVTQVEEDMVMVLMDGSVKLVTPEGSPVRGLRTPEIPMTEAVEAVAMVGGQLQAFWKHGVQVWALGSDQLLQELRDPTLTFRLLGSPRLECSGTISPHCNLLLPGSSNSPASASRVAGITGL

[8] = system: CD28; experiment: CD28 expression on CD4+ T cells of stimulated PBMCs; format: cell-based, human; conditions: PBMCs + anti-CD3, 72 hrs
Procedure: FIG. 7: RSKAKNPLYR-(2Adod)4-NH2 increases CD28 levels on T cells. […] Data presented indicates the mean respective expression in CD4+ T cell populations in response to peptide treatment, +/−SEM, n=4. Data was analysed by two-way ANOVA with Dunnett's post test, *P<0.05, **P<0.01, ***P<0.001, ****P<0.0001. *** indicates all bars under the line are significant compared to vehicle. Red dotted line indicates unstimulated PBMC expression.
Because full activation of MAP kinases requires the presence of the TCR co-receptor, the present inventors sought to examine the expression of CD28 on T cells.

[9] = system: exhausted CD4+ cells; experiment: IL-2 from exhausted CD4+ cells upon restimulation (MBP-Tracker mouse splenocytes); format: cell-based, mice; conditions: 72 hrs, multiplex immunoassay
Procedure: Supernatants were collected after 72 hrs in culture to assess IL-2 cytokine production measured by multiplex immunoassay. Data are presented as mean+/−SEM from 4 biological replicates normalised to vehicle control (0). **P<0.01, Non-parametric one way ANOVA (Freidman) with Dunns post-test was used to compare groups at each dose level to lowest level (0.08 μM).
T examine the ability of peptides comprising D-amino acids induce low levels of IL-2, IL-2 expression on exhausted CD4+ cells upon restimulation was examined. In brief, a single spleen per experiment was removed from MBP-Tracker mice and processed to generate a single cell suspension of splenocytes. Cells were resuspended at 3×10^6/mL and stimulated with WT-MBP (control, non-exhausted cells) or APL-MBP (to generate exhausted cells). Cells were stimulated for 72 hr. Following stimulation, T cells were purified by ficoll density gradient and subsequently re-plated at 2×10^6/mL in 20U/mL IL-2 for four days. After 4 days, cells were collected, resuspended (4×10^5/mL, final 2×10^4 per well) and restimulated using irradiated APC (from B10PL×C57BL/6 mice, 4×10^6/mL, final 2×10^5 per well) a single dose of APL-MBP peptide, together with test or reference substance or appropriate controls for 72 hrs. […]

With `COc1cc(-c2nn([C@H]3CC[C@H](N4CCN(C(C)=O)CC4)CC3)c3ncnc(N)c23)ccc1NC(=O)c1cc2ccccc2n1C` [A-770041] the “enhancement of IL-2 production, Lck inhibitor compared with IK14004” value [1] was “ten-fold greater enhancement” and the “increase in IL-2 secretion above vehicle control” value ([1]; A-770041 at 100 nM) was 300%.

For `CCCCCCCCCCC(NC(=O)C(CCCCCCCCCC)NC(=O)C(CCCCCCCCCC)NC(=O)C(CCCCCCCCCC)NC(=O)[C@H](CCCNC(=N)N)NC(=O)[C@H](Cc1ccc(O)cc1)NC(=O)[C@H](CC(C)C)NC(=O)[C@@H]1CCCN1C(=O)[C@H](CC(N)=O)NC(=O)[C@H](CCCCN)NC(=O)[C@H](C)NC(=O)[C@H](CCCCN)NC(=O)[C@H](CO)NC(=O)[C@@H](N)CCCNC(=N)N)C(N)=O` (some centres unmarked) [IK14004, RSKAKNPLYR-(2Adod)4-NH2] (H-RSKAKNPLYR[ξGly(decyl)][ξGly(decyl)][ξGly(decyl)][ξGly(decyl)]-NH2; N-terminus assumed), the tolerability of doses [2] was “Well tolerated”.

In the case of `COc1cccc2c1C(=O)c1c(O)c3c(c(O)c1C2=O)C[C@@](O)(C(=O)CO)C[C@@H]3O[C@H]1C[C@H](N)[C@H](O)[C@H](C)O1` [doxorubicin], the “kill in vitro, Lewis Lung Cancer cells” value [3] was 100% and the “kill in vitro, B16-F10 melanoma cells” value [4] was 100%.

In the case of RSKAKNPLYR [IK14000], the “effect on c-Src activity” value [5] was “inhibits c-Src” and the “effect on Lck activity” value [6] was “neither the 10 mer RSKAKNPLYR (designated IK14000) nor 4 lipidic peptide residues designated IK00041 activated Lck”.

With “RSKAKNPLYR-(2Adod)3-NH2 (RSKAKNPLYR-{2Adod-2Adod-2Adod-NH2}) [IK14003, … conjugated to three 2-amino dodecanoic acid residues]” the “effect on c-Src activity” value [5] was “stimulated c-Src activity above 1 uM”.

With “rskaknplyr-(2Adod)4-NH2 ([dR][dS][dK][dA][dK][dN][dP][dL][dY][dR]-{2Adod-2Adod-2Adod-2Adod-NH2}) […-(2Adod)4-NH2 comprising D amino acids]” the “effect on MAP4K1 (HPK1) kinase activity” value [7] was “inhibits”, the CD28 levels [8] was “increased CD28 levels” and the “IL-2 expression on exhausted CD4+ cells upon restimulation” value [9] was “increases IL-2 expression”.

From patent US20240358790A1, “COMPOSITIONS AND METHODS FOR TREATING AUTOIMMUNITY, INCLUDING AUTOIMMUNITY ASSOCIATED WITH CANCER AND CANCER THERAPY” (Interk Peptide Therapeutics Limited, priority 2021, published 2024)
